Data taken from patent publication US20240384268A1, “Oligonucleotides” (Hudson Institute of Medical Research, priority 2021, published 2024).
In the oligonucleotide strings, read from the 5' end, every base follows the letter of its sugar. An asterisk marks phosphorothioate; unmarked linkages are phosphodiester. Other units and linkages are bracketed, terminal groups are in braces. A string of capitals states the bases alone. m = 2'-O-methyl

Target: T1, human TLR9 (Homo sapiens, UniProt Q9NR96)
T1 construct: HA; host or cells: 293XL-hTLR9-HA (HEK293)
T1 sequence (Q9NR96 26-1032): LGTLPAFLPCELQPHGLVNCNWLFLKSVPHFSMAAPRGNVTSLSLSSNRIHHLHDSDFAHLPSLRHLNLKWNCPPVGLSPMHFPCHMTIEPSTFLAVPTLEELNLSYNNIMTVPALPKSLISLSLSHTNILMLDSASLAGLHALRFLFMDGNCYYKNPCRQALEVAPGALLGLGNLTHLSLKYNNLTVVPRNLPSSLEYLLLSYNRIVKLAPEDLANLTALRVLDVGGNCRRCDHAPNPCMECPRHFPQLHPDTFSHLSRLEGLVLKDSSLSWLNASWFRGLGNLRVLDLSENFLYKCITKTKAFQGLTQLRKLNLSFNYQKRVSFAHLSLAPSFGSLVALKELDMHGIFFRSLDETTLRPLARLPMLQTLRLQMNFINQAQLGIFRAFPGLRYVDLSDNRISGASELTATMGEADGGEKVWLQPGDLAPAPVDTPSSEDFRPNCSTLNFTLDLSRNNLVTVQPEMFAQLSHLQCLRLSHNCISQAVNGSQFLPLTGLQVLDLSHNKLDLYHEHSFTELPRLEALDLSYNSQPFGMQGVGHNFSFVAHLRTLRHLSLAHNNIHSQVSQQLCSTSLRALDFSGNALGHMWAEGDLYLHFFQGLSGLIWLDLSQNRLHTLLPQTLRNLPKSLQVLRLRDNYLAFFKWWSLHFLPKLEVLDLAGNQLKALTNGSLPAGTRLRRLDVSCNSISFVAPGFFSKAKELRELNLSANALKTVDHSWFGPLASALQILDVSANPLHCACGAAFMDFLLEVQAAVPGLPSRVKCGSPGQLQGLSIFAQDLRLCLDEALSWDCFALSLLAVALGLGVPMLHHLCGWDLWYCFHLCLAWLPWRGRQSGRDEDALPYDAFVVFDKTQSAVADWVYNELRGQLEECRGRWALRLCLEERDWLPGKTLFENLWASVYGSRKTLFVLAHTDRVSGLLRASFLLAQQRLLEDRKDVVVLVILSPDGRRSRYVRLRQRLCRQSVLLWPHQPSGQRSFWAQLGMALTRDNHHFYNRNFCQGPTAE
Experiment: HEK-TLR9 NF-κB-luciferase reporter, ODN2006 stimulation
Assay type: cell-based
Conditions: 3mer 2'OMe ASO at 2 uM; HEK-TLR9; value relative to Ligand only = 1.000, NT = 0.000

Sequence | TLR9 2 uM
AAU (antisense mA*mA*mU) | 0.884
ACU (antisense mA*mC*mU) | 0.996
AGU (antisense mA*mG*mU) | 0.840
AUA (antisense mA*mU*mA) | 0.944
AUG (mA*mU*mG) | 0.878
AUU (mA*mU*mU) | 0.864
CAU (mC*mA*mU) | 0.921
CCU (mC*mC*mU) | 1.180
CGU (mC*mG*mU) | 1.237
CUA (mC*mU*mA) | 1.182
CUC (mC*mU*mC) | 0.966
CUG (mC*mU*mG) | 0.948
GCU (mG*mC*mU) | 1.429
GGU (mG*mG*mU) | 1.177
UAA (mU*mA*mA) | 1.176
UAC (mU*mA*mC) | 0.997
UAG (mU*mA*mG) | 0.977
UAU (mU*mA*mU) | 1.145
UCC (mU*mC*mC) | 1.106
UCU (mU*mC*mU) | 0.876
UGC (mU*mG*mC) | 1.198
UGU (mU*mG*mU) | 1.085
UUA (mU*mU*mA) | 0.912
UUC (mU*mU*mC) | 0.770
UUG (listed as RNA, chemistry not fully specified) | 0.816

Same assay, conditions: ASO 100 nM; relative to ODN2006 only, given as fraction

Sequence | TLR9 100 nM (averaged NF-κB-Luciferase level relative to ODN2006 condition)
ACACTTCGTGGGGTCC (antisense; LNA-modified, pattern not given here) [HPRT LNA-665 V1] | 0.241
CAACACTTCGTGGGGT (antisense; LNA-modified, pattern not given here) [HPRT LNA-667 V1] | 0.733
CCAAGATCAGCAGTCT (antisense; LNA-modified, pattern not given here) [CTNN2B-2341 LNA KL] | 1.424
CCATCCATGAGGTCCT (antisense; LNA-modified, pattern not given here) [CTNN2B-2545 LNA V1] | 1.383
GATAGCACCTTCAGCA (antisense; LNA-modified, pattern not given here) [CTNN2B-1294 LNA KL] | 0.804
GCAGGCTCAGTGATGT (antisense; LNA-modified, pattern not given here) [CTNN2B-1642 LNA V1] | 1.036
GCATCCACCACGTCGT (antisense; LNA-modified, pattern not given here) [EGFR-3267 LNA V1] | 0.556
GCCATCCACTTGATAG (antisense; LNA-modified, pattern not given here) [EGFR-2874 LNA V1] | 0.772
GCCATGCTGGCTCGGA (antisense; LNA-modified, pattern not given here) [CAMSAP1-2584 LNA V1] | 0.879
GCCATGTTTCTTCTTG (antisense; LNA-modified, pattern not given here) [MB21D1-1248 LNA KL] | 0.163
GGCTGGAATCCGAGTT (antisense; LNA-modified, pattern not given here) [EGFR-4705 LNA KL] | 1.051
GGTTACGGCTCAGTAT (antisense; LNA-modified, pattern not given here) [CAMSAP1-4295 LNA KL] | 0.943
GTATCGAAAGAGTCTG (antisense; LNA-modified, pattern not given here) [EGFR-3908 LNA KL] | 1.429
GTCCCCTGTTGACTGG (antisense; LNA-modified, pattern not given here) [HPRT LNA-489 KL] | 0.387
GTCTTGGCTTCGTGGA (antisense; LNA-modified, pattern not given here) [MB21D1-522 LNA V1] | 0.745
GTGTCTGGAAGCTTCC (antisense; LNA-modified, pattern not given here) [CTNN2B-809 LNA V1] | 0.493
GTTCAGTCCTGTCCAT (antisense; LNA-modified, pattern not given here) [HPRT LNA-292 V1] | 1.081
TCCAACACTTCGTGGG (antisense; LNA-modified, pattern not given here) [HPRT LNA-669 V1] | 0.623
TCGTAGTTGCTTCCTA (antisense; LNA-modified, pattern not given here) [MB21D1-1181 LNA KL] | 0.987
TGATGGCCTCCCATCT (antisense; LNA-modified, pattern not given here) [HPRT LNA-332 V1] | 0.770
TGCACACTTCGTACCC (antisense; LNA-modified, pattern not given here) [CAMSAP1-4916 LNA V1] | 0.283
TGGCCTCCCATCTCCT (antisense; LNA-modified, pattern not given here) [HPRT LNA-329 V1] | 0.743
TGTGATGGCCTCCCAT (antisense; LNA-modified, pattern not given here) [HPRT LNA-334 V1] | 0.818
TTCGTGGGGTCCTTTT (antisense; LNA-modified, pattern not given here) [HPRT LNA-661 V1] | 0.963
TTTTGGCTGGGATCAA (antisense; LNA-modified, pattern not given here) [CAMSAP1-4697 LNA KL] | 0.985

Same assay, conditions: ASO 500 nM; relative to ODN2006 only, given as fraction

Sequence | TLR9 500 nM (averaged NF-κB-Luciferase level relative to ODN2006 condition)
ACACTTCGTGGGGTCC (antisense; LNA-modified, pattern not given here) [HPRT LNA-665 V1] | 0.001
CAACACTTCGTGGGGT (antisense; LNA-modified, pattern not given here) [HPRT LNA-667 V1] | 0.395
CCAAGATCAGCAGTCT (antisense; LNA-modified, pattern not given here) [CTNN2B-2341 LNA KL] | 0.669
CCATCCATGAGGTCCT (antisense; LNA-modified, pattern not given here) [CTNN2B-2545 LNA V1] | 0.476
GATAGCACCTTCAGCA (antisense; LNA-modified, pattern not given here) [CTNN2B-1294 LNA KL] | 0.560
GCAGGCTCAGTGATGT (antisense; LNA-modified, pattern not given here) [CTNN2B-1642 LNA V1] | 0.228
GCATCCACCACGTCGT (antisense; LNA-modified, pattern not given here) [EGFR-3267 LNA V1] | 0.375
GCCATCCACTTGATAG (antisense; LNA-modified, pattern not given here) [EGFR-2874 LNA V1] | 0.589
GCCATGCTGGCTCGGA (antisense; LNA-modified, pattern not given here) [CAMSAP1-2584 LNA V1] | 0.147
GCCATGTTTCTTCTTG (antisense; LNA-modified, pattern not given here) [MB21D1-1248 LNA KL] | 0.070
GGCTGGAATCCGAGTT (antisense; LNA-modified, pattern not given here) [EGFR-4705 LNA KL] | 0.492
GGTTACGGCTCAGTAT (antisense; LNA-modified, pattern not given here) [CAMSAP1-4295 LNA KL] | 0.400
GTATCGAAAGAGTCTG (antisense; LNA-modified, pattern not given here) [EGFR-3908 LNA KL] | 0.647
GTCCCCTGTTGACTGG (antisense; LNA-modified, pattern not given here) [HPRT LNA-489 KL] | 0.326
GTCTTGGCTTCGTGGA (antisense; LNA-modified, pattern not given here) [MB21D1-522 LNA V1] | 0.392
GTGTCTGGAAGCTTCC (antisense; LNA-modified, pattern not given here) [CTNN2B-809 LNA V1] | 0.613
GTTCAGTCCTGTCCAT (antisense; LNA-modified, pattern not given here) [HPRT LNA-292 V1] | 0.382
TCCAACACTTCGTGGG (antisense; LNA-modified, pattern not given here) [HPRT LNA-669 V1] | 0.473
TCGTAGTTGCTTCCTA (antisense; LNA-modified, pattern not given here) [MB21D1-1181 LNA KL] | 0.224
TGATGGCCTCCCATCT (antisense; LNA-modified, pattern not given here) [HPRT LNA-332 V1] | 0.153
TGCACACTTCGTACCC (antisense; LNA-modified, pattern not given here) [CAMSAP1-4916 LNA V1] | 0.244
TGGCCTCCCATCTCCT (antisense; LNA-modified, pattern not given here) [HPRT LNA-329 V1] | 0.277
TGTGATGGCCTCCCAT (antisense; LNA-modified, pattern not given here) [HPRT LNA-334 V1] | 0.431
TTCGTGGGGTCCTTTT (antisense; LNA-modified, pattern not given here) [HPRT LNA-661 V1] | 0.523
TTTTGGCTGGGATCAA (antisense; LNA-modified, pattern not given here) [CAMSAP1-4697 LNA KL] | 0.169
